Source: PubChem BioAssay (NCI)
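Here, GI50 denotes the concentration required for 50% inhibition of growth. TGI marks complete inhibition of growth.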

What was measured:
Test in all cases: NCI anticancer screen, dose series, 384-well format
SF-295 CNS = system: SF-295 CNS
ACHN renal = system: ACHN renal
SNB-19 CNS = system: SNB-19 CNS
A549 NSCLC = system: A549 NSCLC
K-562 leukemia = system: K-562 leukemia
RPMI-8226 leukemia = system: RPMI-8226 leukemia
HCC-2998 colon = system: HCC-2998 colon
NCI-H522 lung = system: NCI-H522 lung
MDA-MB-231 breast = system: MDA-MB-231 breast
NCI-H23 lung = system: NCI-H23 lung
OVCAR-8 ovarian = system: OVCAR-8 ovarian
BT-549 breast = system: BT-549 breast
SN12C renal = system: SN12C renal
EKVX NSCLC = system: EKVX NSCLC
HCT-15 colon = system: HCT-15 colon
SW-620 colon = system: SW-620 colon
SR leukemia = system: SR leukemia
SF-268 CNS = system: SF-268 CNS
MALME-3M melanoma = system: MALME-3M melanoma
SF-539 CNS = system: SF-539 CNS
SK-OV-3 ovarian = system: SK-OV-3 ovarian
SK-MEL-28 melanoma = system: SK-MEL-28 melanoma
SNB-75 CNS = system: SNB-75 CNS
MCF7 breast = system: MCF7 breast
NCI-H322M lung = system: NCI-H322M lung
CCRF-CEM leukemia = system: CCRF-CEM leukemia
NCI-H460 NSCLC = system: NCI-H460 NSCLC
RXF 393 renal = system: RXF 393 renal
NCI/ADR-RES ovarian = system: NCI/ADR-RES ovarian

SMILES: O=C(Nc1cc(F)c(F)cc1C(=O)O)c1ccc(-n2ccnc2)nn1
- GI50 (SF-295 CNS): > 100 µM
- TGI (SF-295 CNS): > 100 µM
- GI50 (ACHN renal): > 100 µM
- TGI (ACHN renal): > 100 µM
- GI50 (SNB-19 CNS): > 100 µM
- TGI (SNB-19 CNS): > 100 µM
- GI50 (A549 NSCLC): > 100 µM
- TGI (A549 NSCLC): > 100 µM
- GI50 (K-562 leukemia): 50.6 µM
- TGI (K-562 leukemia): > 100 µM
- GI50 (RPMI-8226 leukemia): > 100 µM
- TGI (RPMI-8226 leukemia): > 100 µM
- GI50 (HCC-2998 colon): > 100 µM
- TGI (HCC-2998 colon): > 100 µM
- GI50 (NCI-H522 lung): 65.1 µM
- TGI (NCI-H522 lung): > 100 µM
- GI50 (MDA-MB-231 breast): > 100 µM
- TGI (MDA-MB-231 breast): > 100 µM
- GI50 (NCI-H23 lung): > 100 µM
- TGI (NCI-H23 lung): > 100 µM
- GI50 (OVCAR-8 ovarian): > 100 µM
- TGI (OVCAR-8 ovarian): > 100 µM
- GI50 (BT-549 breast): > 100 µM
- TGI (BT-549 breast): > 100 µM
- GI50 (SN12C renal): > 100 µM
- TGI (SN12C renal): > 100 µM
- GI50 (EKVX NSCLC): > 100 µM
- TGI (EKVX NSCLC): > 100 µM
- GI50 (HCT-15 colon): > 100 µM
- TGI (HCT-15 colon): > 100 µM
- GI50 (SW-620 colon): > 100 µM
- TGI (SW-620 colon): > 100 µM
- GI50 (SR leukemia): 23.3 µM
- TGI (SR leukemia): 49.7 µM
- GI50 (SF-268 CNS): > 100 µM
- TGI (SF-268 CNS): > 100 µM
- GI50 (MALME-3M melanoma): > 100 µM
- TGI (MALME-3M melanoma): > 100 µM
- GI50 (SF-539 CNS): > 100 µM
- TGI (SF-539 CNS): > 100 µM
- GI50 (SK-OV-3 ovarian): > 100 µM
- TGI (SK-OV-3 ovarian): > 100 µM
- GI50 (SK-MEL-28 melanoma): > 100 µM
- TGI (SK-MEL-28 melanoma): > 100 µM
- GI50 (SNB-75 CNS): > 100 µM
- TGI (SNB-75 CNS): > 100 µM
- GI50 (MCF7 breast): > 100 µM
- TGI (MCF7 breast): > 100 µM
- GI50 (NCI-H322M lung): > 100 µM
- TGI (NCI-H322M lung): > 100 µM
- GI50 (CCRF-CEM leukemia): > 100 µM
- TGI (CCRF-CEM leukemia): > 100 µM
- GI50 (NCI-H460 NSCLC): > 100 µM
- TGI (NCI-H460 NSCLC): > 100 µM
- GI50 (RXF 393 renal): > 100 µM
- TGI (RXF 393 renal): > 100 µM
- GI50 (NCI/ADR-RES ovarian): > 100 µM
- TGI (NCI/ADR-RES ovarian): > 100 µM
